Measurements: US20070265289A1, “2-Aminopyrimidine Derivative” (priority 2004, published 2007)

Experiments:
[1] = molecular target: T1, rat IKK2 (Rattus norvegicus, UniProt Q9QY78); test: Evaluation of rat IKK2 enzyme inhibition; assay type: biochemical; conditions: 0.5 μM ATP, probit analysis; read-out: IC50, rat IKK2 enzyme activity-inhibitory effect
T1 construct: ORF of rat IKK2 (GenBank AF115282) was cloned from a rat pancreas cDNA library; FLAG; made in house; host or cells: Sf9 insect cells
T1 sequence (Q9QY78 1-757): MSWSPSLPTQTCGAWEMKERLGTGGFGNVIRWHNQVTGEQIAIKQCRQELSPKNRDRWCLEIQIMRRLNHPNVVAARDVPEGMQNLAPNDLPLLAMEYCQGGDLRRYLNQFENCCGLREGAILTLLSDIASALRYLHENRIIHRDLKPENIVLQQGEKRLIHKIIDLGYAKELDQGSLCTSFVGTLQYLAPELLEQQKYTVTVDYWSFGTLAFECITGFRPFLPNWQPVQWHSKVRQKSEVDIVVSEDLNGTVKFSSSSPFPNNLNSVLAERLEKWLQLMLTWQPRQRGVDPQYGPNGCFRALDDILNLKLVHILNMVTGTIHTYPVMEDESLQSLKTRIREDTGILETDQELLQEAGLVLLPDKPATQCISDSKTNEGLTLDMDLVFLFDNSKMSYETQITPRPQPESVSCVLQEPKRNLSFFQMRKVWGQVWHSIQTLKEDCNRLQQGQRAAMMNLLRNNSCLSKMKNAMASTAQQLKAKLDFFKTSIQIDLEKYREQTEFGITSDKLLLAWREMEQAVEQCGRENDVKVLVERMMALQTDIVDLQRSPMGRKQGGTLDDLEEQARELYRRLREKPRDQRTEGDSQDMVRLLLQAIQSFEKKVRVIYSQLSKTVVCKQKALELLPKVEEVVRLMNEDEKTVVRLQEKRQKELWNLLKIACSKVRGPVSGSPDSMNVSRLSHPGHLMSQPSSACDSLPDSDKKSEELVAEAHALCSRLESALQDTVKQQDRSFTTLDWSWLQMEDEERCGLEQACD
Method: (1) Evaluation of Rat IKK2 Enzyme Inhibition:
ORF of rat IKK2 (GenBank AF115282) was cloned from a rat pancreas cDNA library, and with a FLAG-tag attached thereto, it was expressed in an Sf9 cell line. The cells were dissolved in a cytolytic solution (50 mM Tris-HCl pH 7.5, 0.15M NaCl, 1% NP-40, 10% glycerol, 1 mM EDTA, 1 mM EGTA pH 7.5, 1 mM Na3VO4, 5 mM p-nitrophenylphosphate, 10 mM O-glycerophosphate, 1 mM DTT, 1 mM PMSF, 10 μg/ml leupeptin, 10 μg/ml aprotinin (by Sigma)) to prepare a large amount of an cell extract, which was then purified on an anti-FLAG M2 antibody (by Sigma). This experimental operation was carried out in accordance with gene manipulation experiment manuals such as known methods (Sambrook, J. et al, Molecular Cloning-A Laboratory Manual, Cold Spring Harbor laboratory, NY, 1989) or the instructions attached to the reagents. The purified rat IKK2 was stored in an enzyme preservative (20 mM Tris-HCl pH 7.5, 10% glycerol, 12.5 mM β-glycerophosphate, 0.5 mM EDTA, 0.5 mM EGTA, 0.05% Brij35, 1 mM DTT, 1 mM PMSF (by Sigma)) at −80° C.
The purified rat IKK2, 1× enzymatic reaction buffer (20 mM Tris-HCl pH 7.5, 12.5 mM O-glycerophosphate, 20 mM MgCl2, 0.1 mM DTT), 0.01% BSA (by Sigma), 0.5 μM ATP, 0.2 μM biotinated substrate peptide (18th to 49th amino acid residues of rat I-kappa B alpha (GenBank Q63746)) and a test compound dissolved in DMSO were added to a 384-well plate (catalogue No. 3677, by Corning) to be 10 μl in total therein, and left at room temperature for 90 minutes. Next, […] of a reaction stopper (100 mM Hepse pH 8, 0.01% BSA, 0.8 M KF, 50 mM EDTA pH 8, 1% Triton X-100, europium cryptate-labeled anti-phosphorylation I-kappa B alpha-antibody (by Santa Cru), streptoavidin-labeled XL665 (by Nihon Schering)) was added thereto, kept warmed for 30 minutes, and then assayed with DISCOVERY (by Perkin-Elmer). The rat IKK2 enzyme activity-inhibitory effect of the tested compound was obtained according to the following formula. Every dose was tested independently three times. Inhibition (%) by Test Compound=((mean value with rat IKK2 but not with test compound)−(mean value with both test compound and rat IKK2))/((mean value with rat IKK2 but not with test compound)−(mean value not with rat IKK2))×100.

[2] = tested on: collagen-induced rheumatoid arthritis; test: Rat collagen-induced rheumatoid arthritis model; assay type: in vivo; conditions: oral administration at a dose of 30 mg/kg, 14 days
Method: (4) Collagen-Induced Rheumatoid Arthritis Model:
The effect to rat collagen-induced rheumatoid arthritis was evaluated according to a partial modification of the method described in The Japanese Journal of Pharmacology, 1997 August; 74(4): 313-22.
10 mL of a 1 mg/mL solution of bovine-derived type 2 collagen (by Cosmobio) diluted three-fold with acetic acid was mixed with adjuvant incomplete Freund (by Difco) in 1/1, and emulsified to give an emulsion for sensitization. The tail root of each rat in a control group and in a test compound administration group was disinfected with ethanol, and collagen-sensitized through intradermal injection of 0.4 mL of the emulsion containing […] of collagen thereinto to thereby induce rheumatoid arthritis. The rats in the non-sensitized group were not treated for collagen sensitization. To the rats of the control group, 10 mL/kg of 0.5% methyl cellulose was orally administered. To the rats of the test compound administration group, a compound of the invention was orally administered. One week after the sensitization, the administration continued for 14 days. The degree of inflammation was judged by measuring the rheumatoid arthritis scores of the four limbs of each rat (scoring). Briefly, the symptom of each articulation was visually grouped into the following four ranks (0: normal, 1: flare or light swelling, 2: middle swelling, 3: heavy swelling or joint ankylosis); and the total of the numerical data of the four limbs is referred to as the rheumatoid arthritis score. The scoring was carried out every other day after the development of rheumatoid arthritis. The cumulative rheumatoid arthritis score was calculated by totaling the rheumatoid arthritis scores on every scoring date of every individual. Relative to the mean cumulative rheumatoid arthritis score of rats of the control group, the inhibition by the those of the test compound administration group was calculated, and the mean value of the data was shown.

[3] = tested on: TNF-α production; test: Mouse LPS-induced TNF-α production model; assay type: in vivo, Balb/c female mice; conditions: Mus musculus, po, 1.5 h, oral administration of 30 mg/kg, 60 minutes before LPS, blood 90 minutes after LPS; read-out: inhibition of plasma TNF-α
Method: (2) Mouse LPS-Induced TNF-α Production Model:
6 weeks old Balb/c female mice were placed into two groups, a control group and a test compound administration group. A solution containing 10 μg/mouse of LPS in 0.9% physiological salt was administered by intraperitoneal injection into the control mice. 60 minutes before the LPS administration, a compound of the invention was orally administered to the mice of the test compound administration group. Under anesthesia with diethyl ether, blood was collected from the posterior venous cavity of the mice of both the test compound administration group and the control group at 90 minutes after the LPS administration, and treated with heparin, and the plasma was separated from it through centrifugation at 10000 rpm at 4° C. for 10 minutes, and then diluted two-fold with PBS (pH 7.4).
The TNF-α concentration in the sample was determined with an ELISA kit (by Pharmingen, San Diego, Calif.). The inhibition by the mice of the test compound administration group relative to the mean inhibition by those of the control group was calculated as a mean value thereof.
The inhibition in oral administration of 30 mg/kg of compound (I) is shown below.

## Nc1nc(-c2c(O)cccc2OCC2CCCC2)cc(C2CCCNC2)n1 (stereo not shown) [Example 92]
[1]
  IC50: ≤ 500 nM
[2]
  inhibition of cumulative rheumatoid arthritis score: ~100%

## Nc1nc(-c2c(O)cccc2OCC2CC2)cc(C2CCCNC2)n1 (stereo not shown) [Example 37]
[1]
  IC50: ≤ 500 nM
[2]
  inhibition of cumulative rheumatoid arthritis score: ~100%

## Nc1nc(-c2c(O)cccc2OCC2CCC2)cc(C2CCCNC2)n1 (stereo not shown) [Example 85]
[1]
  IC50: ≤ 500 nM
[2]
  inhibition of cumulative rheumatoid arthritis score: ~100%
[3]
  inhibition in vivo at 30 mg/kg: 85%
